The results in this text go back to patent US8969573B2, “Compounds for the inhibition of cellular proliferation” (President and Fellows of Harvard College, priority 2010, dated 2015).

One experiment concerns the target eIF4E/eIF4G interaction (Homo sapiens, UniProt P06730). Put plainly: Fluorescent polarization assay. The class given is binding. Conditions: FITC eIF4G peptide and recombinant eIF4E, ratio to Z (4EGI-1 = 1). The method, then: The difference between the two measurement yields net polarization which is considered full signal of the assay (100% control). […] The activity of compound at each concentration is determined by comparing the fluorescent polarization (FP) signal in the presence of compound to the control (no compound) value. The percent inhibition is =100-((FP compound/FP control)*100).

A further experiment has as its system CRL2813 human melanoma. The experiment is described as follows: SRB assay (inhibition of cell proliferation). Type of experiment: cell-based. The source says: (§1) A sulfur rhodamine B (SRB) assay was used to determine the extent of inhibition of cell proliferation as a measure of the anti-cancer activity of compounds of the present disclosure. The reagent SRB binds to cellular proteins and absorbs light proportionally to the cellular protein content, which is a surrogate marker for the number of cells. According to aspects of the present disclosure, the assay can be used to with any cancer cell line including breast cancer cell lines, prostate cancer cell lines, melanoma cell lines, lung cancer cell lines or any other cell lines of the cancers described herein.
(§2) The following protocol was used to determine the growth characteristics of certain cell lines CRL2351 human breast cancer and CRL2813 human melanoma from which cell lines having doubling times less than 48 hours were selected for growth inhibition experiments. […] The following materials were used in addition to the cancel cell lines: complete (5% fetal calf serum added) tissue culture media, 96-well tissue culture plates, Sulforhodamine B dye (SRB, 0.57% w/w), […] (TCA, 10%), acetic acid glacial (1%) and 10 mM Tris base. The cells were prepared and plated. Cancer cells were grown to 80% confluency in an incubator. The cells were trypsinized per standard protocol or as needed for each cell line. The trypsin was neutralized, cells dissociated and counted. Each cell line was plated at a density of 500, 1000 and 3000 cells per well (six wells each) in five separate plates. The cells were then returned to the incubator. One plate was then removed each day starting day one after plating. 100 μl of 10% TCA was then added and the cells were fixed at 4° C. until all the cells were fixed. […] The cell growth for vehicle treatment is considered to be 100%. The optical density was then measured and plotted for each starting cell number and cell line against time. The percent cell growth inhibition was calculated as 100 minus the % of control cell growth. The % of control cell growth=((mean OD sample−Mean OD day 0)/(mean OD vehicle−Mean OD day 0))*100.

Experiment [1] deals with CRL2351 human breast cancer. Put plainly: SRB assay (inhibition of cell proliferation). Type of experiment: cell-based. Conditions: CRL2351 human breast cancer cells.
From the text: as §1, §2

[2] abbreviates: Homo sapiens, CRL2813, CRL2813 human melanoma cells, summary table, read-out: IC50 [μM} CRL2813.
The mark [3] stands for this setting: Homo sapiens, summary table, read-out: IC50 [μM} CRL2351.
Setting [4] is: CRL2813 human melanoma cells, Tables 1, 4, 5, read-out: SRB-IC50 (μM) 2813.
[5] abbreviates: Tables 1, 4, 5, read-out: SRB-IC50 (μM) 2351.
The mark [6] stands for this setting: CRL2813 human melanoma cells, summary table, read-out: IC50 [μM} CRL2813.
[7] abbreviates: summary table, read-out: IC50 [μM} CRL2351.

Read-outs that look alike come from different tables or passages of the source.

Chain of eIF4E/eIF4G interaction (P06730 whole entry): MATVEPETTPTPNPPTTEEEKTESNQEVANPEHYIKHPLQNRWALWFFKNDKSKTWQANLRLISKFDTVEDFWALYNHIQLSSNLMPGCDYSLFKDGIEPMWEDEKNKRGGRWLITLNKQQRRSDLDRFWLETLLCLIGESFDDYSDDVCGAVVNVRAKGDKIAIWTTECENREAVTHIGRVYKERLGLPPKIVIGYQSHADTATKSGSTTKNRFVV

Take `O=C(O)C(Cc1ccccc1[N+](=O)[O-])=NNc1nc(-c2ccc(OCCCCOc3ccc(Cl)cc3)cc2)cs1` [KH-336S]: the “Fp (ratio to Z)” value on eIF4E/eIF4G interaction came to 0.96. Usually IC50 stands for the concentration needed to halve the response being measured. Consider `O=C(O)/C(Cc1ccccc1[N+](=O)[O-])=N\Nc1nc2c(s1)CSc1cc(Cl)c(Cl)cc1-2` [PC-218S], for which the IC50 in the experiment with CRL2813 human melanoma (setting [2]) worked out at 3 µM; in experiment [1] (setting [3]), 5.5 µM. `O=C(O)C(Cc1ccccc1[N+](=O)[O-])=NNc1nc(-c2ccc(OCCCOc3ccc(Cl)cc3)cc2)cs1` [KH-332S]: the “Fp (ratio to Z)” value on eIF4E/eIF4G interaction was 1.09. On to `COc1cc2c(cc1OC)-c1nc(N/N=C(/Cc3ccccc3[N+](=O)[O-])C(=O)O)sc1CC2` [PC-195S, (Z)-2-(2-(7,8-dimethoxy-4,5-dihydronaphtho[1,2-d]thiazol-2-yl)hydrazono)-3-(2-nitrophenyl) propanoic acid], for which the IC50 in the experiment with CRL2813 human melanoma (setting [2]) worked out at 7.5 µM; in experiment [1] (setting [3]), 4 µM. For the compound `O=C(O)C(Cc1ccccc1[N+](=O)[O-])=NNc1nc(-c2cccc(OCCBr)c2)cs1` (single isomer, unassigned) [KH153-f], the IC50 with CRL2813 human melanoma (setting [4]) was 8 µM; in experiment [1] (setting [5]), 13.2 µM.

For `O=C(O)C(Cc1ccccc1[N+](=O)[O-])=NNc1nc(-c2cccc(OCCCBr)c2)cs1` (single isomer, unassigned) [KH154-s], in experiment [1] (setting [5]), the IC50 is 1.5 µM. `O=C(O)/C(Cc1ccccc1[N+](=O)[O-])=N\Nc1nc(-c2ccc(N3CCOCC3)c(Br)c2)cs1` [KH-287II-S]: on eIF4E/eIF4G interaction, the “Fp (ratio to Z)” value is on record as 0.62. As to `O=C(O)C(Cc1ccccc1[N+](=O)[O-])=NNc1nc(-c2cccc(OCCCBr)c2)cs1` (single isomer, unassigned) [KH154-f], the concentration for half-maximal inhibition (IC50) was 0.7 µM with CRL2813 human melanoma (setting [4]) and 3.5 µM in experiment [1] (setting [5]). For `O=C(O)C(Cc1ccccc1[N+](=O)[O-])=NNc1nc(-c2cccc(OCCCCBr)c2)cs1` (mixture of isomers) [KH155] the same measures were 10.8 µM and 8.6 µM. Take `O=C(O)C(Cc1ccccc1[N+](=O)[O-])=NNc1nc(-c2ccc(Br)cc2)cs1` [KH-53S]: the “Fp (ratio to Z)” value on eIF4E/eIF4G interaction is recorded as 0.61. In the case of `O=C(O)C(Cc1ccccc1[N+](=O)[O-])=NNc1nc(-c2ccccc2OCCCCCBr)cs1` (single isomer, unassigned) [KH152-f], the IC50 is less than 1 µM with CRL2813 human melanoma (setting [4]) and 2.4 µM in experiment [1] (setting [5]). With `O=C(O)/C(Cc1ccccc1[N+](=O)[O-])=N\Nc1nc(-c2ccc(OCCCCCBr)cc2)cs1` [KH-148I], the IC50 in the experiment on CRL2813 human melanoma (setting [2]) turned out to be 0.9 µM. Besides, the “Fp (ratio to Z)” value at eIF4E/eIF4G interaction is reported as 1.50. In the case of `O=C(O)C(Cc1ccccc1[N+](=O)[O-])=NNc1nc(-c2ccc(OCCCBr)cc2)cs1` (single isomer, unassigned) [KH147-f], the IC50 worked out at 1.1 µM in the experiment with CRL2813 human melanoma (setting [4]) and 0.5 µM in experiment [1] (setting [5]). In the case of `CCN(CC)c1ccc(-c2csc(N/N=C(\Cc3ccccc3[N+](=O)[O-])C(=O)O)n2)cc1` [KY-615F], the IC50 with CRL2813 human melanoma (setting [6]) was found to be 18.8 µM; in experiment [1] (setting [7]), 5.7 µM. As for `O=C(O)C(Cc1ccccc1[N+](=O)[O-])=NNc1nc(-c2cccc(OCCCCCBr)c2)cs1` (mixture of isomers) [KH156], the IC50 worked out at 6 µM in the experiment with CRL2813 human melanoma (setting [4]) and 9.1 µM in experiment [1] (setting [5]).

In the case of `[N-]=[N+]=Nc1ccc(-c2csc(NN=C(Cc3ccccc3[N+](=O)[O-])C(=O)O)n2)cc1` [KH-8], the “Fp (ratio to Z)” value on eIF4E/eIF4G interaction is reported as 0.99.

As for `O=C(O)C(Cc1ccccc1[N+](=O)[O-])=NNc1nc(-c2cccc(OCCBr)c2)cs1` (single isomer, unassigned) [KH153-s], the half-maximal inhibitory concentration (IC50) in experiment [1] (setting [5]) is 14 µM. For the compound `O=C(O)C(Cc1ccccc1[N+](=O)[O-])=NNc1nc(-c2ccccc2OCCBr)cs1` (single isomer, unassigned) [KH149-s], the IC50 in the experiment with CRL2813 human melanoma (setting [4]) turned out to be 11.5 µM; in experiment [1] (setting [5]), 6 µM.

For `O=C(O)/C(Cc1ccccc1[N+](=O)[O-])=N/Nc1nc2c(s1)COc1cc(Cl)c(Cl)cc1-2` [PC-204F, 2-(2-(7,8-dichloro-4H-chromeno[4,3-d]thiazol-2-yl)hydrazono)-3-(2-nitrophenyl)propanoic acid], the IC50 in experiment [1] (setting [3]) came out at 2 µM. Turning to `COc1ccc(-c2sc(N/N=C(/Cc3ccccc3[N+](=O)[O-])C(=O)O)nc2-c2ccc(C3CCCCC3)cc2)cc1` [KY-612SF], in the experiment on CRL2813 human melanoma (setting [6]), the IC50 was 0.1 µM. For the same compound, the “Fp (ratio to Z)” value on eIF4E/eIF4G interaction was 1. Regarding “2-(2-(7,8-dichloro-4,5-dihydronaphtho[1,2-d]thiazol-2-yl)hydrazono)-3-(2-nitrophenyl)propanoic acid [PC-159S]”, the IC50 in the experiment on CRL2813 human melanoma (setting [6]) was determined as 4 µM; in experiment [1] (setting [7]), 12.5 µM. As for `O=C(O)C(Cc1ccccc1[N+](=O)[O-])=NNc1nc(-c2ccc(OCCBr)cc2)cs1` (single isomer, unassigned) [KH146-f], the results for the IC50 (with CRL2813 human melanoma (setting [4]); in experiment [1] (setting [5])) were 2.1 µM and less than 0.54 µM, respectively. For `O=C(O)C(Cc1ccccc1[N+](=O)[O-])=NNc1nc(-c2ccc(OCCCCCBr)cc2)cs1` (mixture of isomers) [KH148], in that order: 0.8 µM and less than 0.54 µM. As to `O=C(O)C(Cc1ccccc1[N+](=O)[O-])=NNc1nc(-c2ccc(OCCCBr)cc2)cs1` (single isomer, unassigned) [KH147-s], the IC50 in the experiment on CRL2813 human melanoma (setting [4]) was determined as 5.5 µM; in experiment [1] (setting [5]), 11.2 µM. With “2-(2-(6,7-dichloro-4,5-dihydronaphtho[1,2-d]thiazol-2-yl)hydrazono)-3-(2-nitrophenyl)propanoic acid [PC-163S]”, the half-maximal inhibitory concentration (IC50) (in the experiment with CRL2813 human melanoma (setting [6]); in experiment [1] (setting [7])) was 3 µM each time.

Turning to `O=C(O)C(Cc1ccccc1[N+](=O)[O-])=NNc1nc(-c2ccc(OCCCCCOc3ccccc3)cc2)cs1` [KH-333S], the “Fp (ratio to Z)” value on eIF4E/eIF4G interaction turned out to be 0.96. With `O=C(O)/C(Cc1ccccc1[N+](=O)[O-])=N\Nc1nc2c(s1)COc1c-2ccc(Cl)c1Cl` [PC-202S, 2-(2-(6,7-dichloro-4H-chromeno[4,3-d]thiazol-2-yl)hydrazono)-3-(2-nitrophenyl)propanoic acid], in the experiment with CRL2813 human melanoma (setting [2]), the IC50 is 4.5 µM.

As to `O=C(O)/C(Cc1ccccc1[N+](=O)[O-])=N/Nc1nc2c(s1)CSc1c-2ccc(Cl)c1Cl` [PC-218F], the IC50 in the experiment on CRL2813 human melanoma (setting [2]) is 8 µM; in experiment [1] (setting [3]), less than 1 µM.

Take “2-(2-(7,8-dichloro-4H-chromeno[4,3-d]thiazol-2-yl)hydrazono)-3-(2-nitrophenyl)propanoic acid [PC-204S]”: the half-maximal inhibitory concentration (IC50) in the experiment on CRL2813 human melanoma (setting [6]) is 3 µM; in experiment [1] (setting [7]) it was less than 1 µM.

In the case of `O=C(O)C(Cc1ccccc1[N+](=O)[O-])=NNc1nc(-c2ccccc2OCCCBr)cs1` (mixture of isomers) [KH150], the IC50 is 0.9 µM with CRL2813 human melanoma (setting [4]) and 2.8 µM in experiment [1] (setting [5]). For `O=C(O)C(Cc1ccccc1[N+](=O)[O-])=NNc1nc(-c2ccc(Cl)c(Cl)c2)cs1` [Compound 4EGI-1, reference compound], the IC50 in the experiment on CRL2813 human melanoma (Homo sapiens, CRL2813, CRL2813 human melanoma cells, Tables 1, 4, 5, read-out: SRB-IC50 (μM) 2813) came out at 1.3 µM; in the experiment on CRL2813 human melanoma (setting [2]), 3.8 ± 1.06 µM; in experiment [1] (Homo sapiens, Tables 1, 4, 5, read-out: SRB-IC50 (μM) 2351), 6.5 µM; in experiment [1] (setting [3]), 5 ± 1.6 µM. “2-(2-(6,7-dichloro-4,5-dihydronaphtho[1,2-d]thiazol-2-yl)hydrazono)-3-(2-nitrophenyl)propanoic acid [PC-163F]”: the IC50 (in the experiment with CRL2813 human melanoma (setting [6]); in experiment [1] (setting [7])) was less than 1 µM throughout. Regarding `O=C(O)C(Cc1ccccc1[N+](=O)[O-])=NNc1nc(-c2ccc(OCCBr)cc2)cs1` (single isomer, unassigned) [KH146-s], the values for the IC50 (in the experiment on CRL2813 human melanoma (setting [4]); in experiment [1] (setting [5])) were 14 µM and 14.5 µM, respectively. For `O=C(O)C(Cc1ccccc1[N+](=O)[O-])=NNc1nc(-c2ccccc2OCCBr)cs1` (single isomer, unassigned) [KH149-f] the same measures were 1 µM and 1 µM. Take `O=C(O)/C(Cc1ccccc1[N+](=O)[O-])=N/Nc1nc2c(s1)COc1c-2ccc(Cl)c1Cl` [PC-202F, 2-(2-(6,7-dichloro-4H-chromeno[4,3-d]thiazol-2-yl)hydrazono)-3-(2-nitrophenyl)propanoic acid]: the IC50 in the experiment with CRL2813 human melanoma (setting [2]) was less than 1 µM.

`O=C(O)c1nn(-c2nc(-c3ccc(Cl)c(Cl)c3)cs2)c2ccc([N+](=O)[O-])cc12` [RYF-440]: the “Fp (ratio to Z)” value at eIF4E/eIF4G interaction is listed as 1.3.

For `O=C(O)C(Cc1ccccc1[N+](=O)[O-])=NNc1nc(-c2ccccc2OCCCCCBr)cs1` (single isomer, unassigned) [KH152-s], the IC50 in the experiment on CRL2813 human melanoma (setting [4]) stood at 4.5 µM; in experiment [1] (setting [5]), 7.8 µM.
